Columns and labels:
[1] = tested on: human respiratory syncytial virus (rgRSV30); type: cell-based
[2] = safety monitoring of human subjects undergoing intermittent gNO inhalation; type: in vivo
From the text: In some embodiments, the methods disclosed herein are effected while monitoring various parameters relevant for maintaining the desired dosage and regimen, relevant to the safety of the procedure and relevant for efficacy of the treatment. Exemplary such parameters are those obtainable on-site in real-time, such as methemoglobin level, end-tidal CO2 level, and oxygenation, and parameters which are obtainable off-site in the laboratory, such as blood nitrite level, urine nitrite level, and inflammatory markers' level. […] Embodiments of the present invention therefore relate to methods of administering gaseous nitric oxide to human subjects in need thereof, while these parameters remain substantially unchanged.
As methemoglobin levels can be measured using noninvasive measures, the parameter of percent saturation at the periphery of methemoglobin (SpMet) is used to monitor the stability, safety and effectiveness of the method presented herein.

[3] = tested on: human influenza (influenza A/victoria H3N2) and highly pathogenic avian influenza (H7N2); type: cell-based, influenza virus
[4] = human subjects undergoing the disclosed regimen

[N]=O [gNO, nitric oxide]
infectivity of RSV [1]: reduced their infectivity
change in inflammatory markers [2, 4]: no substantial change
change in methemoglobin level [2, 4]: no substantial change
change in serum nitrite level [2, 4]: no substantial change
SpMet level (percent saturation at the periphery of methemoglobin) ([2]; human subjects undergoing the method, during and following administration): ≤ 1%
infectivity of influenza [3]: reduced their infectivity
